Test: human repetitive patch test (cumulative irritation)
Conditions: undiluted product under semi-occlusive patches daily over twelve-day test period, about 100 μl per patch; SLS value is average of two studies
Description: The technique involves application of undiluted test products under semi-occlusive patches daily over a twelve-day test period. Approximately 100 μl of test product is applied to each non-woven cotton pad and secured to the skin with porous, hypoallergenic tape. An undosed patch served as a negative control, while a 1.0% sodium lauryl sulfate (SLS) patch served as the positive control. Each day, patches were removed and test sites professionally graded for irritation prior to re-patching.

## CCCCCCCCCCCCOS(=O)(=O)[O-].[Na+] [SLS, sodium lauryl sulfate]
  Cumulative Irritation Score: 514

Source: patent publication US20060216258A1, “Water-in-silicone emulsion compositions” (priority 2005, published 2006)
